# Data reported in PMC6683117 (2019).
# Test system: KRAS G12D mutated nucleotide (GAT), biotinylated hairpin (DNA, hairpin) TACATCTGATGGCGTATTAAGTTTTCTTAATACGCCATCAGATGTA
# Test: SPR (Biacore X100), kinetic kd/ka
# Details: 150 mM NaCl; HBS-EP (10 mM HEPES, 3 mM EDTA, 0.005% P20), 0.1% DMSO, pH 7.4, 25 °C; printed ka, kd give 3.04 × 10^-8
compound,measurement,value
CN(C)CCCNC(=O)CCNC(=O)c1cc(NC(=O)c2nc(NC(=O)c3nc(NC(=O)CCNC(=O)c4cc(NC(=O)c5nc(NC(=O)CCCNC(=O)c6cc(NC(=O)c7cc(NC(=O)c8cc(NC(=O)CCNC(=O)c9cc(NC(=O)c%10nc(NC(=O)CCNC(=O)CCCC[C@@H]%11SC[C@@H]%12NC(=O)NC%12%11)cn%10C)cn9C)cn8C)cn7C)cn6C)cn5C)cn4C)cn3C)cn2C)cn1C (stereo partly shown),KD,304 nM
